Source: PubChem BioAssay (NCI)
Where “and” joins values, the source holds several entries; their conditions need not be identical. Equal entries are not always repeated.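 Compound exposure: 48 hours, 5 concentrations, 96-well plates. GI50 is the concentration that inhibits growth by half. Definition used: TGI = concentration required for complete inhibition of growth.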

Assays:
Assay in all cases: DTP human tumour cell line panel, 48 h
UACC-257 melanoma = system: UACC-257 melanoma
SK-MEL-28 melanoma = system: SK-MEL-28 melanoma
HL-60(TB) leukemia = system: HL-60(TB) leukemia
SK-OV-3 ovarian = system: SK-OV-3 ovarian
KM20L2 colon = system: KM20L2 colon
OVCAR-5 ovarian = system: OVCAR-5 ovarian
A498 renal = system: A498 renal
OVCAR-8 ovarian = system: OVCAR-8 ovarian
SNB-78 CNS = system: SNB-78 CNS
LOX IMVI melanoma = system: LOX IMVI melanoma
MDA-MB-435 = system: MDA-MB-435
NCI-H226 lung = system: NCI-H226 lung
OVCAR-3 ovarian = system: OVCAR-3 ovarian
U251 CNS = system: U251 CNS
SF-295 CNS = system: SF-295 CNS
HOP-92 NSCLC = system: HOP-92 NSCLC
HCC-2998 colon = system: HCC-2998 colon
LXFL 529 NSCLC = system: LXFL 529 NSCLC
HCT-15 colon = system: HCT-15 colon
MCF7 breast = system: MCF7 breast
SR leukemia = system: SR leukemia
MDA-N = system: MDA-N
SNB-19 CNS = system: SNB-19 CNS
HOP-62 NSCLC = system: HOP-62 NSCLC
786-0 renal = system: 786-0 renal
TK-10 renal = system: TK-10 renal
SK-MEL-5 melanoma = system: SK-MEL-5 melanoma
NCI-H522 lung = system: NCI-H522 lung
SK-MEL-2 melanoma = system: SK-MEL-2 melanoma
SW-620 colon = system: SW-620 colon
A549 NSCLC = system: A549 NSCLC
ACHN renal = system: ACHN renal
OVCAR-4 ovarian = system: OVCAR-4 ovarian
K-562 leukemia = system: K-562 leukemia
MDA-MB-231 breast = system: MDA-MB-231 breast
MALME-3M melanoma = system: MALME-3M melanoma
MOLT-4 leukemia = system: MOLT-4 leukemia
RPMI-8226 leukemia = system: RPMI-8226 leukemia
NCI-H460 lung = system: NCI-H460 lung
DMS 114 small cell lung = system: DMS 114 small cell lung
UACC-62 melanoma = system: UACC-62 melanoma
M19-MEL melanoma = system: M19-MEL melanoma
COLO 205 colon = system: COLO 205 colon
KM12 colon = system: KM12 colon
NCI-H23 lung = system: NCI-H23 lung
EKVX NSCLC = system: EKVX NSCLC
DLD-1 colon = system: DLD-1 colon
IGROV1 ovarian = system: IGROV1 ovarian
HOP-18 NSCLC = system: HOP-18 NSCLC
SNB-75 CNS = system: SNB-75 CNS
SF-268 CNS = system: SF-268 CNS
M14 melanoma = system: M14 melanoma
UO-31 renal = system: UO-31 renal
HT29 colon = system: HT29 colon
RXF 393 renal = system: RXF 393 renal
CAKI-1 renal = system: CAKI-1 renal
PC-3 prostate = system: PC-3 prostate
CCRF-CEM leukemia = system: CCRF-CEM leukemia
SF-539 CNS = system: SF-539 CNS
HCT-116 colon = system: HCT-116 colon
SN12C renal = system: SN12C renal
RXF-631 renal = system: RXF-631 renal
DMS 273 small cell lung = system: DMS 273 small cell lung

With `CN1CCN(CCn2c3c4ccccc4ccc3c3oc(=O)c4ccccc4c32)CC1` the GI50 (UACC-257 melanoma) was > 1 µM, the TGI (UACC-257 melanoma) was > 1 µM and 2.96 µM and the GI50 (SK-MEL-28 melanoma) was 1.99 µM. For the same molecule, the TGI (SK-MEL-28 melanoma) was 3.47 µM and 9.37 µM, the TGI (HL-60(TB) leukemia) was 3.47 µM and the TGI (SK-OV-3 ovarian) was 27.4 µM. The TGI (KM20L2 colon) was 7.79 µM, the TGI (OVCAR-5 ovarian) was 10.4 µM and the GI50 (A498 renal) was 18.7 µM. For the same molecule, the TGI (A498 renal) was 38.3 µM, the GI50 (OVCAR-8 ovarian) was 2.32 µM and the TGI (OVCAR-8 ovarian) was 5.13 µM and 3.37 µM. For the same molecule, the TGI (SNB-78 CNS) was 16.4 µM, the GI50 (LOX IMVI melanoma) was 1.61 µM and 4.84 µM and the TGI (MDA-MB-435) was 3.35 µM. For the same molecule, the TGI (NCI-H226 lung) was 33.5 µM, the TGI (OVCAR-3 ovarian) was 23.7 µM and the TGI (U251 CNS) was 6.25 µM and 6.92 µM. The GI50 (SF-295 CNS) was 1.88 µM, the TGI (SF-295 CNS) was 4.5 µM and 9.45 µM and the GI50 (HOP-92 NSCLC) was 3.44 µM. For the same molecule, the TGI (HOP-92 NSCLC) was 17 µM, the GI50 (HCC-2998 colon) was 4.22 µM and the TGI (HCC-2998 colon) was 3.74 µM and 18.7 µM. For the same molecule, the TGI (LXFL 529 NSCLC) was 8.07 µM, the GI50 (HCT-15 colon) was 1.61 µM and the TGI (HCT-15 colon) was 3.21 µM and 7.92 µM. The TGI (MCF7 breast) was 3.03 µM, the TGI (SR leukemia) was 3.13 µM and the TGI (MDA-N) was 2.95 µM. The GI50 (SNB-19 CNS) was 1.5 µM, the TGI (SNB-19 CNS) was 7.24 µM and 10.9 µM and the GI50 (HOP-62 NSCLC) was 10.1 µM. The TGI (HOP-62 NSCLC) was 4.65 µM and 23.7 µM, the GI50 (786-0 renal) was 1.96 µM and the TGI (786-0 renal) was 3.76 µM and 4.07 µM. It also gave a TGI (TK-10 renal) of 22.5 µM, a TGI (SK-MEL-5 melanoma) of 3.41 µM and a GI50 (NCI-H522 lung) of 1.68 µM. The TGI (NCI-H522 lung) was 3.29 µM and 10.4 µM, the TGI (SK-MEL-2 melanoma) was 27.7 µM and the TGI (SW-620 colon) was 4.29 µM and 5.33 µM. The GI50 (A549 NSCLC) was 2.91 µM, the TGI (A549 NSCLC) was 8.92 µM and 8.94 µM and the TGI (ACHN renal) was 7.42 µM. For the same molecule, the TGI (OVCAR-4 ovarian) was 6.85 µM, the TGI (K-562 leukemia) was 2.89 µM and 4.29 µM and the TGI (MDA-MB-231 breast) was 3.59 µM. For the same molecule, the TGI (MALME-3M melanoma) was 29.3 µM, the TGI (MOLT-4 leukemia) was 3.2 µM and 4.38 µM and the GI50 (RPMI-8226 leukemia) was 1.84 µM. The TGI (RPMI-8226 leukemia) was 3.79 µM and 15 µM, the GI50 (NCI-H460 lung) was 1.46 µM and the TGI (NCI-H460 lung) was 4.09 µM and 2.95 µM. For the same molecule, the TGI (DMS 114 small cell lung) was 3.84 µM, the GI50 (UACC-62 melanoma) was 2.14 µM and the TGI (UACC-62 melanoma) was 4.74 µM and 5.11 µM. For the same molecule, the TGI (M19-MEL melanoma) was 24.7 µM, the GI50 (COLO 205 colon) was 2 µM and the TGI (COLO 205 colon) was 3.4 µM and 5.14 µM. For the same molecule, the GI50 (KM12 colon) was 2.13 µM, the TGI (KM12 colon) was 4.54 µM and 6.56 µM and the GI50 (NCI-H23 lung) was 1.92 µM. For the same molecule, the TGI (NCI-H23 lung) was 3.72 µM and 15.7 µM, the TGI (EKVX NSCLC) was 25.5 µM and the TGI (DLD-1 colon) was 6.13 µM. The GI50 (IGROV1 ovarian) was > 1 µM, the TGI (IGROV1 ovarian) was > 1 µM and 31.1 µM and the TGI (HOP-18 NSCLC) was 25.1 µM. The TGI (SNB-75 CNS) was 16.6 µM, the GI50 (SF-268 CNS) was 5.03 µM and the TGI (SF-268 CNS) was 14 µM. For the same molecule, the GI50 (M14 melanoma) was 1.94 µM, the TGI (M14 melanoma) was 3.43 µM and 3.29 µM and the GI50 (UO-31 renal) was 3.08 µM. The TGI (UO-31 renal) was 11.9 µM, the GI50 (HT29 colon) was 1.65 µM and the TGI (HT29 colon) was 3.3 µM and 2.71 µM. For the same molecule, the GI50 (RXF 393 renal) was 5.75 µM, the TGI (RXF 393 renal) was > 1 µM and 19.9 µM and the TGI (CAKI-1 renal) was 16.7 µM. The TGI (PC-3 prostate) was 4.59 µM, the TGI (CCRF-CEM leukemia) was 3.2 µM and 3.94 µM and the TGI (SF-539 CNS) was 3.47 µM and 3.08 µM. The GI50 (HCT-116 colon) was 1.55 µM, the TGI (HCT-116 colon) was 2.88 µM and 3.79 µM and the GI50 (SN12C renal) was 4.44 µM. For the same molecule, the TGI (SN12C renal) was 3.05 µM and the TGI (RXF-631 renal) was 17.8 µM.
For `O=C1CCC(O)=C1N=Nc1cc(Cl)cc(Cl)c1`, the TGI (UACC-257 melanoma) was > 100 µM, the TGI (SK-MEL-28 melanoma) was > 100 µM and the TGI (HL-60(TB) leukemia) was > 100 µM. The TGI (SK-OV-3 ovarian) was > 100 µM, the TGI (OVCAR-5 ovarian) was > 100 µM and the TGI (A498 renal) was 91 µM. For the same molecule, the TGI (OVCAR-8 ovarian) was > 100 µM, the TGI (SNB-78 CNS) was > 100 µM and the TGI (LOX IMVI melanoma) was > 100 µM. For the same molecule, the TGI (NCI-H226 lung) was > 100 µM, the TGI (OVCAR-3 ovarian) was 98.2 µM and the TGI (U251 CNS) was > 100 µM. For the same molecule, the TGI (SF-295 CNS) was > 100 µM, the TGI (HOP-92 NSCLC) was > 100 µM and the TGI (HCC-2998 colon) was > 100 µM. For the same molecule, the TGI (HCT-15 colon) was > 100 µM, the TGI (DMS 273 small cell lung) was > 100 µM and the TGI (SNB-19 CNS) was > 100 µM. The TGI (HOP-62 NSCLC) was > 100 µM, the TGI (786-0 renal) was > 100 µM and the TGI (TK-10 renal) was > 100 µM. For the same molecule, the TGI (SK-MEL-5 melanoma) was > 100 µM, the TGI (SK-MEL-2 melanoma) was > 100 µM and the TGI (SW-620 colon) was > 100 µM. For the same molecule, the TGI (A549 NSCLC) was > 100 µM, the TGI (ACHN renal) was > 100 µM and the TGI (OVCAR-4 ovarian) was > 100 µM. The TGI (K-562 leukemia) was > 100 µM, the TGI (MALME-3M melanoma) was > 100 µM and the TGI (MOLT-4 leukemia) was > 100 µM. The TGI (RPMI-8226 leukemia) was > 100 µM, the TGI (NCI-H460 lung) was > 100 µM and the TGI (DMS 114 small cell lung) was > 100 µM. The TGI (UACC-62 melanoma) was > 100 µM, the TGI (M19-MEL melanoma) was > 100 µM and the TGI (COLO 205 colon) was > 100 µM. The TGI (KM12 colon) was > 100 µM, the TGI (NCI-H23 lung) was > 100 µM and the TGI (EKVX NSCLC) was > 100 µM. The TGI (DLD-1 colon) was > 100 µM, the TGI (IGROV1 ovarian) was > 100 µM and the TGI (HOP-18 NSCLC) was > 100 µM. The TGI (SNB-75 CNS) was > 100 µM, the TGI (SF-268 CNS) was > 100 µM and the TGI (M14 melanoma) was > 100 µM. For the same molecule, the TGI (UO-31 renal) was > 100 µM, the TGI (HT29 colon) was > 100 µM and the TGI (RXF 393 renal) was > 100 µM. For the same molecule, the TGI (CAKI-1 renal) was > 100 µM, the TGI (CCRF-CEM leukemia) was > 100 µM and the TGI (SF-539 CNS) was > 100 µM. The TGI (HCT-116 colon) was > 100 µM, the TGI (SN12C renal) was > 100 µM and the TGI (RXF-631 renal) was > 100 µM.
